The record followed here is patent US5053329A, “Process for preparation of novel angiotensin II antagonists” (Merck & Co., Inc., priority 1991, dated 1991).

For the assay, the target named is T1, angiotensin II receptor (rabbit aortae membrane preparation) (Oryctolagus cuniculus, UniProt P34976).
T1 sequence (P34976 1-359): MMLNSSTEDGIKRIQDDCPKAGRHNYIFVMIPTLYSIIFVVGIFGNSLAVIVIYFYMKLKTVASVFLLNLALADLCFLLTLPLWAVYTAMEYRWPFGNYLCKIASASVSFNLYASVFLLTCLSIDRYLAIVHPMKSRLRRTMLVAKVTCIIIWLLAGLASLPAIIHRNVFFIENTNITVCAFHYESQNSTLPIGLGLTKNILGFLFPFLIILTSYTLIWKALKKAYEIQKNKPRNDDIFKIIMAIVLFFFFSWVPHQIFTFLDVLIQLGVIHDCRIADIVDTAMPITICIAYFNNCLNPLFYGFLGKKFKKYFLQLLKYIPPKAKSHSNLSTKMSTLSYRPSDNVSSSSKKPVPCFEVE
Nature of the assay: Receptor binding assay using rabbit aortae membrane preparation (displacement of 125I-Sar1 Ile8-angiotensin II). Particulars: result in words. Here is the method:
This assay is also referred to herein as the "IC50 " assay.
RECEPTOR BINDING ASSAY USING RABBIT AORTAE MEMBRANE PREPARATION
Three frozen rabbit aortae (obtained from Pel-Freeze Biologicals) were suspended in 5 mM Tris-0.25M Sucrose, pH 7.4 buffer (50 ml) homogenized, and then centrifuged. The mixture was filtered through a cheesecloth and the supernatant was centrifuged for 30 minutes at 20,000 rpm at 4° C. The pellet thus obtained was resuspended in 30 ml of 50 mM Tris-5 mM MgCl2 buffer containing 0.2% Bovine Serum Albumin and 0.2 mg/ml Bacitration and the suspension was used for 100 assay tubes. Samples tested for screening were done in duplicate. To the membrane preparation (0.25 ml) there was added ^125 I-Sar^1 Ile^8 -angiotensin II [obtained from New England Nuclear] (10 ul; 20,000 cpm) with or without the test sample and the mixture was incubated at 37° C. for 90 minutes. The mixture was then diluted with ice-cold 50 mM Tris-0.9% NaCl, pH 7.4 (4 ml) and filtered through a glass fiber filter (GF/B Whatman 2.4" diameter). The filter was soaked in scintillation cocktail (10 ml) and counted for radioactivity using Packard 2660 Tricarb liquid scintillation counter. […]
(In a radioligand displacement assay an active substance lowers the binding of a labelled ligand.)

In the case of `CCCc1nc2c(CO)ccnc2n1Cc1ccc(-c2ccccc2-c2nnn[nH]2)cc1` [7-HOCH2 - oxidation product], the “A II antagonist activity by the IC50 assay” value is on record as “exhibit A II antagonist activity”.

Consider `CCCc1nc2c(C)c(O)cnc2n1Cc1ccc(-c2ccccc2-c2nnn[nH]2)cc1` [6-HO-oxidation product], for which the “A II antagonist activity by the IC50 assay” value is on record as “exhibit A II antagonist activity”.
